Source: US20100022596A1, “EPOTHILONE ANALOGUES” (priority 2006, published 2010)
Values joined by “and” are separate entries in the source; they are usually repeats but may differ in a detail not shown here. Equal values may be shown once.

How the values were obtained:
[1] = tested on: human epidermoid carcinoma cell line KB-8511; test: Growth inhibition of KB-8511 cells (P-gp170-overexpressing multidrug-resistant subline), 72 h, methylene blue staining; type: cell-based
[2] = tested on: human epidermoid carcinoma cell line KB-31; test: Growth inhibition of KB-31 cells, 72 h, methylene blue staining; type: cell-based; details: KB-31, 72 h exposure
Procedure: Determination of IC50 Values Against Human Epidermoid Carcinoma Cell Lines KB-31
Cells are exposed to compounds for 72 h. Cell numbers are estimated by quantification of protein content of fixed cells by methylene blue staining.

[3] = KB-8511 (P-gp170-overexpressing), 72 h exposure
[4] = KB-8511, 72 h exposure, class symbols

Structure (SMILES) | IC50 ([1]; Homo sapiens, KB-8511, 72 h exposure, class symbols) | IC50 ([2]; Homo sapiens, KB 3-1, 72 h, class symbols) | IC50 [1, 3] | IC50 [1, 4] | IC50 [2] | IC50 ([2]; class symbols) | IC50 ([1]; Homo sapiens, KB-8511 (P-gp170-overexpressing), 72 h exposure) | IC50 ([2]; Homo sapiens, KB 3-1, 72 h) | IC50 ([1]; KB-8511, 72 h exposure, class symbols, listed as drawing 62)
C/C(=C\c1csc(C)n1)[C@@H]1C[C@@H]2OC(=O)NC2CCCC(C)[C@H](O)C(C)C(=O)C(C)(C)C(O)CC(=O)O1 (stereo partly shown) [Compound 1] | > 1 µM | 0.5 to 0.75 µM | – | – | – | – | – | – | –
CC(=Cc1csc(C)n1)C1CC2OC(C)=NC2CCCC(C)C(O)C(C)C(=O)C(C)(C)C(O)CC(=O)O1 (stereo not shown) [Compound 4a] | – | – | > 1 µM | > 1 µM | > 1 µM | > 1 µM | – | – | –
CCC1=NC2CCCC(C)C(O)C(C)C(=O)C(C)(C)C(O)CC(=O)OC(C(C)=Cc3csc(C)n3)CC2O1 (stereo not shown) [Compound 4b] | – | – | 5.54 µM | > 1 µM | 1.86 µM | > 1 µM | – | – | –
CCCCC1=NC2CCCC(C)C(O)C(C)C(=O)C(C)(C)C(O)CC(=O)OC(C(C)=Cc3csc(C)n3)CC2O1 (stereo not shown) [Compound 4c] | – | – | 0.923 µM and 0.998 µM | 0.75 to 1 µM | 0.344 µM and 0.386 µM | 0.25 to 0.5 µM | – | – | –
CC(=Cc1csc(C)n1)C1CC2OC(C(C)(C)C)=NC2CCCC(C)C(O)C(C)C(=O)C(C)(C)C(O)CC(=O)O1 (stereo not shown) [Compound 4d] | – | – | 0.055 µM | 0.1 to 0.25 µM | 0.012 µM | 0.1 to 0.25 µM | – | – | –
COC1=NC2CCCC(C)C(O)C(C)C(=O)C(C)(C)C(O)CC(=O)OC(C(C)=Cc3csc(C)n3)CC2O1 (stereo not shown) [Compound 4e] | – | – | 5.53 µM | > 1 µM | 1.27 µM | > 1 µM | – | – | –
C/C(=C\c1csc(C)n1)[C@@H]1C[C@@H]2OC(=O)NC2CCCC(C)[C@H](O)C(C)C(=O)C(C)(C)C(O)CC(=O)O1 (stereo partly shown) [Compound 4h] | – | – | – | – | 0.64 µM | – | > 10 µM | 0.615 µM | –
CC(=Cc1csc(C)n1)C1CC2OC(c3ccsc3)=NC2CCCC(C)C(O)C(C)C(=O)C(C)(C)C(O)CC(=O)O1 (stereo not shown) [Compound 5l] | – | – | 0.146 µM | – | 0.042 µM | – | – | – | < 0.1 µM
CC(=Cc1csc(C)n1)C1CC2OC(c3ccncc3)=NC2CCCC(C)C(O)C(C)C(=O)C(C)(C)C(O)CC(=O)O1 (stereo not shown) [Compound 6a] | – | – | 0.083 µM | < 0.1 µM | 0.03 µM | < 0.1 µM | – | – | –
CC(=Cc1csc(C)n1)C1CC2OC(c3ccsc3)=NC2CCCC(C)C(O)C(C)C(=O)C(C)(C)C(O)CC(=O)O1 (stereo not shown) [drawing 72] | – | – | – | 0.1 to 0.25 µM | – | < 0.1 µM | – | – | –
